Measured values published in patent publication US11806393B2, “Flavivirus peptide sequences, epitopes, and methods and uses thereof” (priority 2017, dated 2023).

System: CD44+CD62L- CD8+ T cells
Test: ICS, peptide-immunized Ifnar-/- HLA-B*0702 mice challenged with ZIKV
Type: cell-based, mouse
Conditions: mice immunized with the 4 ZIKV/DENV cross-reactive peptides, day 3 after ZIKV challenge
Description: Two HLA-B*0702-binding ZIKV-specific peptides (FSS-NS2A133-141(SEQ ID NO: 41) and FSS/MR766-NS2B68-75 (SEQ ID NO: 45)) and four ZIKV/DENV cross-reactive peptides (FSS/MR766-NS4B426-435 (SEQ ID NO: 60), FSS/MR766-NS2A75-84 (SEQ ID NO: 39), FSS/MR766-NS3206-215 (SEQ ID NO: 47), and FSS/MR766-NS3574-582 (SEQ ID NO: 52)) were chosen for synthesis. Five HLA-A*0101-binding peptides (FSS/MR-E159-167 (SEQ ID NO: 70), FSS/MR-E195-203 (SEQ ID NO: 71), FSS/MR-NS123-31 (SEQ ID NO: 74), FSS/MR-NS4B231-239 (SEQ ID NO: 77), and FSS/MR-NS5509-517 (SEQ ID NO: 79)) were chosen for synthesis. Mice (both female and male; 5-6 weeks of age) were immunized subcutaneously with a mixture of HCV helper peptide (100 μg/mouse) and 3 or 4 HLA-B*0702-binding peptides (50 μg/peptide/mouse) emulsified in Complete Freund's Adjuvant (CFA). Mock group mice received the same immunization strategy but without any ZIKV-specific or ZIKV/DENV cross-reactive peptide. On the 21st day, mice were boosted with the same peptide mixtures emulsified in Incomplete Freund's Adjuvant (IFA). […] Three days post ZIKV infection mice were sacrificed, and serum and spleen were harvested. The splenocytes were used for ICS assay. After cardiac perfusion with PBS, brain was harvested. The levels of infectious ZIKV in serum and brain were measured using FFA.
Spleens were harvested from virus-infected, mock-immunized, or peptide-immunized mice. 1×10^6 splenocytes were plated in each well of 96-well U-bottom plates and stimulated with individual peptide (10 μg crude peptide or 1 μg pure peptide per well) for 6 hours. Five hours before the end of incubation, Brefeldin A (GolgiPlug; BD Biosciences) and PE-conjugated anti CD107a mAb (clone 1D4B, eBioscience) were added to the cells. Splenocytes stimulated with PMA-ionomycin were used as the positive control, while cells without any stimulation were the negative control. […] Samples were run using an LSR™ II (BD Biosciences) and analyzed using FLOWJO™ software X 10.0.7 (Tree Star, Ashland, Oreg.).
Peptide groups received corresponding peptide immunizations as described in Materials and Methods. […] CD3^+CD8^+CD44^+CD62L− T cells were gated and the percentages of IFNγ^+ and/or TNFα^+ cells in a representative mouse from mock (FIG. 12A) and peptide (FIG. 12B) groups were determined by ICS. The levels of infectious ZIKV in sera and brains were measured via FFA. Data were expressed as mean±SEM. *, P<0.05; **, P<0.01; ***, P<0.001. Two-tailed Mann-Whitney test.

Row | Sequence | percentage of epitope-specific cells among antigen experienced (CD44+CD62L-) CD8+ T cells
1 | KPRWMDARV [FSS/MR-NS3574-582] | 0.84±0.39%
2 | RPALLVSFIF [FSS/MR-NS2A75-84] | 3.27±1.91%
